Measurements published in patent US11547697B2, “Heterocyclic compounds and uses thereof” (MILLENNIUM PHARMACEUTICALS, INC., priority 2009, dated 2023).
Like-named read-outs stand apart in the source and are kept apart here.

What was measured:
p110γ = p110γ (Homo sapiens (Human), UniProt P48736); assay: PI 3-Kinase (human) HTRF assay, p110γ; type: biochemical
p110α/p85α = p110α/p85α (Homo sapiens (Human), UniProt P42336); assay: PI 3-Kinase (human) HTRF assay, p110α/p85α; type: biochemical
[1] = in vitro, read-out: PI3K γ IC50
[2] = in vitro, read-out: PI3K α IC50

Sequence of p110α/p85α (P42336 whole entry): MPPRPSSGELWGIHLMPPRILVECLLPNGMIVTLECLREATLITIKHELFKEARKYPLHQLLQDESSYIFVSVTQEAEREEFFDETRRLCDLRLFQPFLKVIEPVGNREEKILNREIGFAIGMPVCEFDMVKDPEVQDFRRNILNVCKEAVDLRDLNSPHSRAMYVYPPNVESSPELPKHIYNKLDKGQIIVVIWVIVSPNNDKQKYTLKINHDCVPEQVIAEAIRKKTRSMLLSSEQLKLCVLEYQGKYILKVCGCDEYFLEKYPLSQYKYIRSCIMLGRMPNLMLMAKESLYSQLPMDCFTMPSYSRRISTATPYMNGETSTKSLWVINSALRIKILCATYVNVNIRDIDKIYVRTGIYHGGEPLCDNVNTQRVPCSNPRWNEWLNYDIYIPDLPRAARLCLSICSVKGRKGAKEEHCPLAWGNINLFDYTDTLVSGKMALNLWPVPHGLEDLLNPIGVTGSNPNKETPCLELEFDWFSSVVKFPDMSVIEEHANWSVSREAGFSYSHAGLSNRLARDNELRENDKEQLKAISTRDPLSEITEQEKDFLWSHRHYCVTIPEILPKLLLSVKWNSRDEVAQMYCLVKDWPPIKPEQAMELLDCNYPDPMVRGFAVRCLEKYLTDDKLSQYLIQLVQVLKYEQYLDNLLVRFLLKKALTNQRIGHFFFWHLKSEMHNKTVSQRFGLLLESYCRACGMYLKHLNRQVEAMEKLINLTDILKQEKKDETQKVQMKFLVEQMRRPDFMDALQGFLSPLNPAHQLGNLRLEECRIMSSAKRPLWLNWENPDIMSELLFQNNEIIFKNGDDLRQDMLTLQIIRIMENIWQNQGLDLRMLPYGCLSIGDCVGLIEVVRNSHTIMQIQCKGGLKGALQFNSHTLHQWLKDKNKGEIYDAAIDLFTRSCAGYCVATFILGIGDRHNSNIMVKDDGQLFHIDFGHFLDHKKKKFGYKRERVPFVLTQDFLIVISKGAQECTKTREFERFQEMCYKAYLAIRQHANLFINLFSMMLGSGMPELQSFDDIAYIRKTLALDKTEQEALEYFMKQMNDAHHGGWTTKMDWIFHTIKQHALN
Sequence of p110α/p85α (P27986 whole entry partner): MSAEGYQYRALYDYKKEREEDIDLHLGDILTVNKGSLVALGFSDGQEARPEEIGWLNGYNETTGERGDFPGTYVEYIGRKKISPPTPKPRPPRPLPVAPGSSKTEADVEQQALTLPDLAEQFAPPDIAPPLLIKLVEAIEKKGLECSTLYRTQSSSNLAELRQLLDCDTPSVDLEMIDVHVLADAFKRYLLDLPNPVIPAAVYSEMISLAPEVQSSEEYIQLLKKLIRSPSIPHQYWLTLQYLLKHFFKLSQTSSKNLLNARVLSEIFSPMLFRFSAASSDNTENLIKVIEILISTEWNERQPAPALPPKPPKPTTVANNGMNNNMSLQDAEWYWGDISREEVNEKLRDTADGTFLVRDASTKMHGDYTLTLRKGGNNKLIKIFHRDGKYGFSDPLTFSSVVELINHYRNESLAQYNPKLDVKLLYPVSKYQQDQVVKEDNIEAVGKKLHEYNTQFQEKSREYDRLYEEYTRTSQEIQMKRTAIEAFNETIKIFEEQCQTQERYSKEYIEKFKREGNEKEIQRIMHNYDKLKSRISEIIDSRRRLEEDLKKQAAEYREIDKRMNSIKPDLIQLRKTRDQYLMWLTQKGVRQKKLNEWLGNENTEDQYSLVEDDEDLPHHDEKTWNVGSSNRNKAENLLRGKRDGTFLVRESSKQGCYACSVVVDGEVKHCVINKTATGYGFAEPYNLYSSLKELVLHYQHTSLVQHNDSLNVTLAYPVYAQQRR
Sequence of p110γ (P48736 whole entry): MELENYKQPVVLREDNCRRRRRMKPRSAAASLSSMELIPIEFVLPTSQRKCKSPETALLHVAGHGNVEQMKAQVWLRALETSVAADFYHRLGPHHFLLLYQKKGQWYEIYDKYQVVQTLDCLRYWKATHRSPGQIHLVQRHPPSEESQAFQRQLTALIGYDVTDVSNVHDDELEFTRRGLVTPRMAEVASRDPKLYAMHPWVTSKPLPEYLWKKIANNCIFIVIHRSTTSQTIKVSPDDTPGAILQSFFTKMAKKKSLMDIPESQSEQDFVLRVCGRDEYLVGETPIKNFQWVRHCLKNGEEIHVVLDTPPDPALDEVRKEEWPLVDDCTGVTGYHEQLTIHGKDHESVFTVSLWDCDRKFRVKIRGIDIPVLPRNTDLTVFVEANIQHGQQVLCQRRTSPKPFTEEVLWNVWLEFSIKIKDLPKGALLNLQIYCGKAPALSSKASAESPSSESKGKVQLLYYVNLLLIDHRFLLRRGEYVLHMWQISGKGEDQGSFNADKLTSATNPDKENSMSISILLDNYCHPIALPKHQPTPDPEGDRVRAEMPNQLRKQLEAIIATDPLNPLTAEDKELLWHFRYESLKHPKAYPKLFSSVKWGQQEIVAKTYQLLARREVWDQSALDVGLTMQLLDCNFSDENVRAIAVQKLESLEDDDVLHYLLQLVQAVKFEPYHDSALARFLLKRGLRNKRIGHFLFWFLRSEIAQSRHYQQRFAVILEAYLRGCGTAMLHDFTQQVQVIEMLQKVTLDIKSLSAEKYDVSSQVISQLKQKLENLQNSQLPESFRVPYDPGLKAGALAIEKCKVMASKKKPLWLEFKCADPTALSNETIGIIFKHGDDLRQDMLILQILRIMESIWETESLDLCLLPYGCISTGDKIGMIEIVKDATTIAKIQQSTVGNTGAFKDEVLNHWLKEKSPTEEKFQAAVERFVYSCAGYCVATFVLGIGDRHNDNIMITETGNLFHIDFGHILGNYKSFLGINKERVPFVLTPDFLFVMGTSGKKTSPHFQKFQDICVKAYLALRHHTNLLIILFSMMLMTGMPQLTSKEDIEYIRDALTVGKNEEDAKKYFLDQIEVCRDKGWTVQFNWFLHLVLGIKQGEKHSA

Structure (SMILES)	IC50 (p110α/p85α; [2])	IC50 (p110α/p85α; read-out: PI3K α In Vitro IC50)	further results
Nc1nc2cc(-c3ccc4ncn(C5CC5)c(=O)c4c3)ccc2o1 [compound 254]	< 1 µM	–	IC50 (p110γ; [1]): < 1 µM
Nc1nc2cc(-c3ccc4ncn(C5CCCC5)c(=O)c4c3)ccc2o1 [compound 256]	< 10 µM	–	–
NC(=O)[C@@H]1CCCN1C(=O)c1cnc2ccc(-c3ccc4oc(N)nc4c3)cn12 [compound 259]	< 1 µM	–	IC50 (p110γ; [1]): < 10 µM
NC(=O)[C@H]1CCCN1C(=O)c1cnc2ccc(-c3ccc4oc(N)nc4c3)cn12 [compound 260]	< 1 µM	–	IC50 (p110γ; [1]): < 10 µM
CN1CCN(CCn2cnc3ccc(-c4ccc5oc(N)nc5c4)cc3c2=O)CC1 [compound 280]	< 10 µM	–	–
Nc1nc2cc(-c3ccc4ncn(CCCN5CCOCC5)c(=O)c4c3)ccc2o1 [compound 290]	< 1 µM	–	–
CN1CCN(CCCn2cnc3ccc(-c4ccc5oc(N)nc5c4)cc3c2=O)CC1 [compound 291]	< 1 µM	–	–
CN(C)CCn1cnc2ccc(-c3ccc4oc(N)nc4c3)cc2c1=O [compound 292]	< 10 µM	–	–
Cc1ccn(C2CCN(C(=O)c3cnc4ccc(-c5ccc6oc(N)nc6c5)cn34)CC2)n1 [compound 297]	< 1 µM	–	IC50 (p110γ; [1]): < 10 µM
CN(C)C1CCN(C(=O)c2cnc3ccc(-c4ccc5oc(N)nc5c4)cn23)CC1 [compound 304]	< 1 µM	–	–
Nc1nc2ccc(-c3ccc4nnc(C(=O)N5CCCC5)n4c3)cc2o1 [compound 305]	< 10 µM	–	–
Cc1nc(NC(=O)N2CCC[C@H]2C(N)=O)sc1-c1ccc2oc(N)nc2c1 [compound 311]	< 1 µM	–	–
Nc1nc2cc(-c3ccc4ncc(N5CCC(n6cccn6)CC5)nc4c3)ccc2o1 [compound 337]	< 0.1 µM	–	IC50 (p110γ; [1]): < 1 µM
Nc1nc2cc(-c3ccc4ncc(C(=O)N5CC5)n4c3)ccc2o1 [compound 340]	< 1 µM	–	IC50 (p110γ; [1]): < 1 µM
Cc1cc2oc(N)nc2cc1-c1ccc2ncc(N3CC(N4CCOCC4)C3)nc2c1 [compound 353]	< 10 µM	–	–
Cc1c(-c2ccc3oc(N)nc3c2)ccc2ncc(N3CC(N4CCOCC4)C3)nc12 [compound 383]	< 1 µM	–	–
Cc1c(-c2ccc3oc(N)nc3c2)ccc2ncc(N3CC(N4CCNCC4)C3)nc12 [compound 386]	< 0.1 µM	–	–
CCN1CCN(c2cnc3ccc(-c4ccc5oc(N)nc5c4)cc3n2)C(=O)C1 [compound 391]	< 10 µM	–	–
Nc1nc2cc(-c3ccc4ncc(N5CCN(CC6CC6)CC5=O)nc4c3)ccc2o1 [compound 393]	< 10 µM	–	–
CC(=O)Nc1cc2ccc(-c3cc(F)c4oc(N)nc4c3)cn2n1 [compound 401]	–	–	IC50 (p110γ; read-out: PI3K γ In Vitro IC50): < 10 µM
C[C@H]1CN(c2cc3cc(-c4ccc5oc(N)nc5c4)ccc3nc2N)CCN1 [compound 403]	–	< 10 µM	–
Nc1nc2cc(-c3cc(F)c4ncc(C(=O)N5CCOCC5)n4c3)ccc2o1 [compound 438]	–	< 10 µM	–
Nc1nc2ccc(-c3cc(F)c4ncc(C(=O)N5CCOCC5)n4c3)cc2o1 [compound 439]	–	< 10 µM	–
CN1CCN(n2cnc3ccc(-c4ccc5oc(N)nc5c4)cc3c2=O)CC1 [compound 446]	–	< 1 µM	–
CC1(C)COCCN1C(=O)c1cnc2ccc(-c3ccc4oc(N)nc4c3)cn12 [compound 514]	–	< 1 µM	–

More lines, main results first:

IC50 (p110α/p85α; [2])	IC50 (p110α/p85α; read-out: PI3K α In Vitro IC50)	Structure (SMILES)	further results
< 10 µM	–	Nc1nc2cc(-c3ccc4ncc(C(=O)N5CCOCC5)n4c3)c(Cl)cc2o1 [compound 370]	–
–	< 10 µM	O=C(c1cnc2ccc(-c3ccc4oc(NC5CC5)nc4c3)cn12)N1CCOCC1 [compound 409]	–
–	< 10 µM	Nc1ncc(-c2ccc3ncc(C(=O)N4CCOCC4)n3c2)cc1C(F)(F)F [compound 410]	–
–	< 10 µM	Nc1nc2nc(-c3ccc4ncc(C(=O)N5CCOCC5)n4c3)ccc2o1 [compound 412]	–
–	< 10 µM	COc1ncc(-c2ccc3ncc(C(=O)N4CCOCC4)n3c2)cc1N [compound 414]	–
–	< 10 µM	Nc1cc(-c2ccc3ncc(C(=O)N4CCOCC4)n3c2)cnc1Cl [compound 415]	–
–	< 10 µM	COc1ccc(-c2ccc3ncc(C(=O)N4CCOCC4)n3c2)cc1S(=O)(=O)Nc1ccccc1 [compound 444]	–
–	< 10 µM	O=C(c1cnc2ccc(-c3cncc(S(=O)(=O)Nc4ccccc4)c3)cn12)N1CCOCC1 [compound 447]	–
–	< 10 µM	CNS(=O)(=O)c1cncc(-c2ccc3ncc(C(=O)N4CCOCC4)n3c2)c1 [compound 450]	–
–	< 10 µM	CS(=O)(=O)Nc1cc(-c2ccc3ncc(C(=O)N4CCOCC4)n3c2)ccc1Cl [compound 460]	–
–	< 10 µM	Nc1nsc2c(-c3ccc4ncc(C(=O)N5CCOCC5)n4c3)cccc12 [compound 474]	–
–	< 10 µM	Nc1nc2cccc(-c3ccc4ncc(C(=O)N5CCOCC5)n4c3)c2s1 [compound 485]	–
–	< 10 µM	Nc1nsc2cc(-c3ccc4ncc(C(=O)N5CCOCC5)n4c3)ccc12 [compound 489]	–
–	< 0.1 µM	O=C(c1cnc2ccc(-c3cccc4[nH]ncc34)cn12)N1CCOCC1 [compound 506]	–
–	< 1 µM	O=C(c1cnc2ccc(-c3cnc(Cl)c4[nH]ncc34)cn12)N1CCOCC1 [compound 516]	–
